Measured values taken from patent US8455475B2 (Gruenenthal GmbH, priority 2009, dated 2013).

Key:
[1] = molecular target: T1, human B1R (bradykinin receptor 1) (Homo sapiens, UniProt P46663); assay: FLIPR Ca2+ assay (Fluo-4) on CHO K1 cells stably transfected with the human B1R gene (hB1R cells): % inhibition at 10 μM / IC50, agonist Lys-Des-Arg9-bradykinin; assay type: cell-based; details: for inhibition at 10 µM: CHO-K1, human B1R
T1 construct: expressed in transfected cells; host or cells: CHO K1 cells
T1 sequence (P46663 1-353): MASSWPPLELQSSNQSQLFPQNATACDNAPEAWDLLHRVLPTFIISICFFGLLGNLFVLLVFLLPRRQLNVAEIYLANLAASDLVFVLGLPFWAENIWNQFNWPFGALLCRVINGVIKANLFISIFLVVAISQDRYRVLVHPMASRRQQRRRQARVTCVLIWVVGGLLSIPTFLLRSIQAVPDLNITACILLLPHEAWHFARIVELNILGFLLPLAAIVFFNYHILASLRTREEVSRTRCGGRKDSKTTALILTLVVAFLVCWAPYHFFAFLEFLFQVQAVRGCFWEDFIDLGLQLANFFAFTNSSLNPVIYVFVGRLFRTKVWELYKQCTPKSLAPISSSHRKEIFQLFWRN
Method in brief: (§1)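 Cells were Fluo-4-loaded, then test compound (10 μM, or a concentration series for IC50) was preincubated 10–20 min before agonist challenge at EC80: Lys-Des-Arg9-bradykinin for hB1R, Des-Arg9-bradykinin for rB1R. Peak Ca2+ fluorescence (ex 488/em 540 nm) gave % inhibition versus maximal achievable inhibition.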

[2] = molecular target: T2, rat B1R (bradykinin receptor 1) (Rattus norvegicus, UniProt P97583); assay: FLIPR Ca2+ assay (Fluo-4) on CHO K1 cells stably transfected with the B1R gene of the rat (rB1R cells): % inhibition at 10 μM / IC50, agonist Des-Arg9-bradykinin; assay type: cell-based; details: for inhibition at 10 µM: CHO-K1, rat B1R
T2 construct: expressed in transfected cells; host or cells: CHO K1 cells
T2 sequence (P97583 1-337): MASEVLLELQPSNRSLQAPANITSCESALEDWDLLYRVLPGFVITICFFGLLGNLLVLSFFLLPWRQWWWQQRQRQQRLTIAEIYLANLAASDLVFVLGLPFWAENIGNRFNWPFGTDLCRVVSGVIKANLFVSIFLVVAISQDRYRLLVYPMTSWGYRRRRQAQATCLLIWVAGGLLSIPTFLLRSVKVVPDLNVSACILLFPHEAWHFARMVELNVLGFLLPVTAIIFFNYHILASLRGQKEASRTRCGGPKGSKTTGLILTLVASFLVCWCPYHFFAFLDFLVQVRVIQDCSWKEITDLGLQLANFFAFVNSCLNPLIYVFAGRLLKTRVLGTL
Method in brief: as §1

Row | inhibition at 10 µM [1] [%] | inhibition at 10 µM [2] [%] | % Inhibition (human B1R) at 10 μM ([1]; human B1R) [%] | % Inhibition (rat B1R) at 10 μM ([2]; rat B1R, 10 µM) [%] | SMILES
1 | 100 | 107 |  |  | CC1(C)CC(NC(=O)c2ccc(F)cc2Cl)c2cc(C(=O)N3CCC4(CC3)CCN(c3ccncc3)CC4)ccc21 (stereo not shown) [IND_CC-276, 2-Chloro-N-[3,3-dimethyl-6-(3-pyridin-4-yl-3,9-diazaspiro[5.5]undecane-9-carbonyl)-1,2-dihydro-inden-1-yl]-4-fluoro-benzamide]
2 | 100 | 105 |  |  | O=C(NC1CCc2ccc(C(=O)N3CCC4(CCN(c5ccncc5)CC4)C3)cc21)c1ccc(F)cc1Cl (stereo not shown) [IND_CC-277, 2-Chloro-4-fluoro-N-[6-(8-pyridin-4-yl-2,8-diazaspiro[4.5]decane-2-carbonyl)-2,3-dihydro-1H-inden-1-yl]-benzamide]
3 | 35 | 101 |  |  | O=C(NC1CCc2ccc(C(=O)N3CCC4(CC3)CCN(c3ccc(C(F)(F)F)cc3)CC4)cc21)c1c(F)cccc1Cl (stereo not shown) [IND_CC-278, 2-Chloro-6-fluoro-N-[6-[9-[4-(trifluoromethyl)-phenyl]-3,9-diazaspiro[5.5]undecane-3-carbonyl]-2,3-dihydro-1H-inden-1-yl]-benzamide]
4 | 100 | 106 |  |  | CC1(C)CC(NC(=O)c2c(F)cccc2Cl)c2cc(C(=O)N3CCC4(CC3)CCN(c3ccncc3)CC4)ccc21 (stereo not shown) [IND_CC-279, 2-Chloro-N-[3,3-dimethyl-6-(3-pyridin-4-yl-3,9-diazaspiro[5.5]undecane-9-carbonyl)-1,2-dihydro-inden-1-yl]-6-fluoro-benzamide]
5 | 100 | 108 |  |  | O=C(NC1CCc2ccc(C(=O)N3CCC4(CCN(c5ccncc5)CC4)C3)cc21)c1c(F)cccc1Cl (stereo not shown) [IND_CC-280, 2-Chloro-6-fluoro-N-[6-(8-pyridin-4-yl-2,8-diazaspiro[4.5]decane-2-carbonyl)-2,3-dihydro-1H-inden-1-yl]-benzamide]
6 | 84 | 105 |  |  | O=C(NC1CCc2ccc(C(=O)N3CCC4(CC3)CCN(c3ccc(C(F)(F)F)cc3)CC4)cc21)c1cccc(Cl)c1Cl (stereo not shown) [IND_CC-281, 2,3-Dichloro-N-[6-[9-[4-(trifluoromethyl)-phenyl]-3,9-diazaspiro[5.5]undecane-3-carbonyl]-2,3-dihydro-1H-inden-1-yl]-benzamide]
7 | 69 | 107 |  |  | CC1(C)Cc2ccc(C(=O)N3CCC4(CC3)CCN(c3ccncc3)CC4)cc2C1NC(=O)c1cccc(Cl)c1Cl (stereo not shown) [IND_CC-282, 2,3-Dichloro-N-[2,2-dimethyl-6-(9-pyridin-4-yl-3,9-diazaspiro[5.5]undecane-3-carbonyl)-1,3-dihydro-inden-1-yl]-benzamide]
8 | 96 | 107 |  |  | CC1(C)CC(NC(=O)c2cccc(Cl)c2Cl)c2cc(C(=O)N3CCC4(CC3)CCN(c3ccncc3)CC4)ccc21 (stereo not shown) [IND_CC-283, 2,3-Dichloro-N-[3,3-dimethyl-6-(3-pyridin-4-yl-3,9-diazaspiro[5.5]undecane-9-carbonyl)-1,2-dihydro-inden-1-yl]-benzamide]
9 | 100 | 107 |  |  | O=C(NC1CCc2ccc(C(=O)N3CCC4(CCN(c5ccncc5)CC4)C3)cc21)c1cccc(Cl)c1Cl (stereo not shown) [IND_CC-284, 2,3-Dichloro-N-[6-(8-pyridin-4-yl-2,8-diazaspiro[4.5]decane-2-carbonyl)-2,3-dihydro-1H-inden-1-yl]-benzamide]
10 | 99 | 105 |  |  | CC1(C)Cc2ccc(C(=O)N3CCC4(CC3)CCN(c3ccncc3)CC4)cc2C1NC(=O)c1c(Cl)cccc1Cl (stereo not shown) [IND_CC-287, 2,6-Dichloro-N-[2,2-dimethyl-6-(9-pyridin-4-yl-3,9-diazaspiro[5.5]undecane-3-carbonyl)-1,3-dihydro-inden-1-yl]-benzamide]
11 | 100 | 106 |  |  | CC1(C)CC(NC(=O)c2c(Cl)cccc2Cl)c2cc(C(=O)N3CCC4(CC3)CCN(c3ccncc3)CC4)ccc21 (stereo not shown) [IND_CC-288, 2,6-Dichloro-N-[3,3-dimethyl-6-(3-pyridin-4-yl-3,9-diazaspiro[5.5]undecane-9-carbonyl)-1,2-dihydro-inden-1-yl]-benzamide]
12 | 100 | 104 |  |  | O=C(NC1CCc2ccc(C(=O)N3CCC4(CCN(c5ccncc5)CC4)C3)cc21)c1c(Cl)cccc1Cl (stereo not shown) [IND_CC-289, 2,6-Dichloro-N-[6-(8-pyridin-4-yl-2,8-diazaspiro[4.5]decane-2-carbonyl)-2,3-dihydro-1H-inden-1-yl]-benzamide]
13 | 35 | 100 |  |  | O=C(NC1CCc2ccc(C(=O)N3CCC4(CC3)CCN(c3ccc(C(F)(F)F)cc3)CC4)cc21)c1ccccc1Cl (stereo not shown) [IND_CC-290, 2-Chloro-N-[6-[9-[4-(trifluoromethyl)-phenyl]-3,9-diazaspiro[5.5]undecane-3-carbonyl]-2,3-dihydro-1H-inden-1-yl]-benzamide]
14 | 98 | 104 |  |  | CC1(C)Cc2ccc(C(=O)N3CCC4(CC3)CCN(c3ccncc3)CC4)cc2C1NC(=O)c1ccccc1Cl (stereo not shown) [IND_CC-291, 2-Chloro-N-[2,2-dimethyl-6-(9-pyridin-4-yl-3,9-diazaspiro[5.5]undecane-3-carbonyl)-1,3-dihydro-inden-1-yl]-benzamide]
15 | 99 | 105 |  |  | CC1(C)CC(NC(=O)c2ccccc2Cl)c2cc(C(=O)N3CCC4(CC3)CCN(c3ccncc3)CC4)ccc21 (stereo not shown) [IND_CC-292, 2-Chloro-N-[3,3-dimethyl-6-(3-pyridin-4-yl-3,9-diazaspiro[5.5]undecane-9-carbonyl)-1,2-dihydro-inden-1-yl]-benzamide]
16 |  |  | 100 | 106 | O=C(NC1CCc2ccc(C(=O)N3CCC4(CCN(c5ccncc5)CC4)C3)cc21)c1ccccc1Cl (stereo not shown) [IND_CC-293, 2-Chloro-N-[6-(8-pyridin-4-yl-2,8-diazaspiro[4.5]decane-2-carbonyl)-2,3-dihydro-1H-inden-1-yl]-benzamide]
17 | 99 | 105 |  |  | Cc1cccc(C)c1C(=O)NC1CCc2ccc(C(=O)N3CCC4(CC3)CCN(c3ccncc3)CC4)cc21 (stereo not shown) [IND_CC-294, 2,6-Dimethyl-N-[6-(9-pyridin-4-yl-3,9-diazaspiro[5.5]undecane-3-carbonyl)-2,3-dihydro-1H-inden-1-yl]-benzamide]
18 | 96 | 106 |  |  | Cc1cccc(C)c1C(=O)NC1CCc2ccc(C(=O)N3CCC4(CC3)CCN(c3ccncc3)C4)cc21 (stereo not shown) [IND_CC-295, 2,6-Dimethyl-N-[6-(2-pyridin-4-yl-2,8-diazaspiro[4.5]decane-8-carbonyl)-2,3-dihydro-1H-inden-1-yl]-benzamide]
19 | 59 | 103 |  |  | COc1ccc(C(=O)N(C)C2CCc3ccc(C(=O)N4CCC5(CC4)CCN(c4ccncc4)CC5)cc32)c(F)c1 (stereo not shown) [IND_CC-296, 2-Fluoro-4-methoxy-N-methyl-N-[6-(9-pyridin-4-yl-3,9-diazaspiro[5.5]undecane-3-carbonyl)-2,3-dihydro-1H-inden-1-yl]-benzamide]
20 | 27 | 106 |  |  | Cc1cc(OC(F)(F)F)ccc1C(=O)N(C)C1CCc2ccc(C(=O)N3CCC4(CC3)CCN(c3ccncc3)CC4)cc21 (stereo not shown) [IND_CC-299, N,2-Dimethyl-N-[6-(9-pyridin-4-yl-3,9-diazaspiro[5.5]undecane-3-carbonyl)-2,3-dihydro-1H-inden-1-yl]-4-(trifluoromethyloxy)-benzamide]
21 | 94 | 107 |  |  | CN(C(=O)c1cc(Cl)ccc1C(F)(F)F)C1CCc2ccc(C(=O)N3CCC4(CC3)CCN(c3ccncc3)CC4)cc21 (stereo not shown) [IND_CC-301, 5-Chloro-N-methyl-N-[6-(9-pyridin-4-yl-3,9-diazaspiro[5.5]undecane-3-carbonyl)-2,3-dihydro-1H-inden-1-yl]-2-(trifluoromethyl)-benzamide]
22 | 99 | 106 |  |  | O=C(NC1CCc2ccc(C(=O)N3CCC4(CC3)CCN(c3ccncc3)CC4)cc21)c1cc(Cl)ccc1C(F)(F)F (stereo not shown) [IND_CC-302, 5-Chloro-N-[6-(9-pyridin-4-yl-3,9-diazaspiro[5.5]undecane-3-carbonyl)-2,3-dihydro-1H-inden-1-yl]-2-(trifluoromethyl)-benzamide]
23 | 92 | 106 |  |  | O=C(NC1CCc2ccc(C(=O)N3CCC4(CC3)CCN(c3ccncc3)C4)cc21)c1cc(Cl)ccc1C(F)(F)F (stereo not shown) [IND_CC-303, 5-Chloro-N-[6-(2-pyridin-4-yl-2,8-diazaspiro[4.5]decane-8-carbonyl)-2,3-dihydro-1H-inden-1-yl]-2-(trifluoromethyl)-benzamide]
